Test results: US20050282745A1, “Non-mammalian GnRH analogs and uses thereof in regulation of fertility and pregnancy” (priority 2001, published 2005)
Non-standard residues stand in square brackets, D forms with d. Residues, ends and D or L forms follow the SMILES beside them. pGlu = O=C1CC[C@@H](C(=O)O)N1; azaGly = NNC(=O)O

Experiments:
baboon granulosa cells = assay: Baboon granulosa cell culture, progesterone release; type: cell-based
Excerpt: The biopotency of chicken II GnRH analogs (SEQ ID NO: 2) in the regulation of baboon ovarian function was studied. The effect of mammalian and chicken II GnRH analogs (SEQ ID NO: 2) on ovarian progesterone release was studied using granulosa cell cultures. The dose-related action of a stable analog of chicken II GnRH (SEQ ID NO: 2) on progesterone production was defined using baboon granulosa cell cultures. After a two hour basal study period, the medium was supplemented with either Buserilin (SEQ ID NO: 10) (10^−7) or a chicken II GnRH analog (SEQ ID NO: 2) (10^−9, 10^−8, 10^−7, 10^−6 M) leaving four control wells. […] This inhibition was sustained after 48 hours of treatment. […] In addition, the action of the analog on three different stromal and three different epithelial endometrial primary cell lines (after 3-5 passages) has been studied and PGE2 determined as indicated in FIG. 31.

[1] = tested on: early human placental explants; assay: Placental explant perifusion, hCG release; type: cell-based; conditions: for pattern of hCG response: continuous perifusion
Excerpt: Placental tissues that are normally discarded were obtained from unidentified patients following first trimester pregnancy termination (early human placental explants). Tissue fragments, dissected of vessels and membranes, were placed in a perfusion system for study of 20 replicate chambers of the same tissue. This allows for simultaneous dose-response studies to be performed. To achieve this specific aim, explants from a given placenta were placed in 20 replicate chambers and perfused with basal medium for three hours at a rate of 6 ml/hr (dead volume of the system at 6 ml/hr is ten minutes). After three hours of equilibration, the analog was added to the basal perfusing medium. Quaduplicate chambers were made for chicken II GnRH analog (SEQ ID NO: 2) at 0, 10^−9, 10^−8, 10^−7, 10^−6 M and Buserelin (SEQ ID NO: 10) at 10^−7 M. The effluent medium of each chamber was collected after a three hour equilibration period. Two basal samples, at half hour intervals were collected, media with test substances was initiated and effluent medium collection continued for four and one half hours at thirty minute intervals. The hCG release was analyzed in each of these experiments. FIGS. 16 and 17 illustrate a typical response. […] Maximal response was observed within minutes after initiation of perfusion at 10^−8 M, with possible down regulation beginning after five hours at 10^−6 M as illustrated in FIG. 18.
In additional experiments, early gestation human placentas were perfused for six hours with medium supplemented with estradiol, progesterone, bovine serum albumin, and antibiotics (basal medium). Twenty replicate chambers were perifused with basal medium for two hours, then triplicate chambers were perifused with the medium containing either Buserelin (SEQ ID NO: 10), or 10^−9, 10^−8, 10^−7, 10^−6 M of a chicken II GnRH analog (SEQ ID NO: 2), leaving five control chambers. The eluted medium was collected at thirty minute intervals, starting one hour prior to the addition of GnRH analogs and throughout five hours of treatment. hCG released into the effluent media, as well as the production of GnRH, were measured using sensitive and specific radioimmunoassays. The release of hCG at each time point was normalized to its zero treatment release and the release throughout the treatment period and its average release was compared for various treatment regimens. These studies were repeated using tissues from three different first trimester placentas. The results of this experiment are illustrated in FIG. 20.

## N=C(N)NCCC[C@@H](NC(=O)[C@H](Cc1c[nH]cn1)NC(=O)[C@H](CO)NC(=O)[C@H](Cc1c[nH]c2ccccc12)NC(=O)[C@H](Cc1c[nH]cn1)NC(=O)[C@@H]1CCC(=O)N1)C(=O)N[C@@H](Cc1c[nH]c2ccccc12)C(=O)N[C@@H](Cc1ccc(O)cc1)C(=O)N1CCC[C@H]1C(=O)NNC(N)=O [D-Arg(6)-chicken II GnRH-aza-Gly(10)-amide] ([pGlu]HWSH[dR]WYP[azaGly]-NH2)
Baboon granulosa cells; 10^−8M, within 24 hours
  progesterone release, of untreated controls: 31%
Baboon granulosa cells; chicken II analog 10^−9 to 10^−6 M, Buserelin 10^−7
  effect on progesterone release, in words: dose-related inhibition of progesterone release
Baboon granulosa cells; within 24 hours
  concentration of maximal inhibition of progesterone release: 10^−8 M
[1]; 10^−9 to 10^−6 M tested
  concentration giving maximal hCG response: 10^−8 M
[1]; listed as Chicken II GnRH analog
  pattern of hCG response: dose related biphasic response
[1]; listed as chicken II GnRH analog
  pattern of hCG response: biphasic stimulation of hCG
